Like-named read-outs stand apart in the source and are kept apart here.
Key:
[1] = system: Human CD45+ leukemic cells purified from patient derived xenografts (PDX)
MHH-CALL-4 = experiment: Cytotoxicity assay (resazurin, 72 hours); assay type: cell-based, human
GSPT1 = target: T1, GSPT1 (Homo sapiens, UniProt P15170); experiment: Immunoblot protein degradation in MHH-CALL-4 cells; assay type: cell-based
T1 construct: degradation of JAK2 and GSPT1 in MHH-CALL-4 cells; endogenous in cells; host or cells: MHH-CALL-4
T1 sequence (P15170 whole entry): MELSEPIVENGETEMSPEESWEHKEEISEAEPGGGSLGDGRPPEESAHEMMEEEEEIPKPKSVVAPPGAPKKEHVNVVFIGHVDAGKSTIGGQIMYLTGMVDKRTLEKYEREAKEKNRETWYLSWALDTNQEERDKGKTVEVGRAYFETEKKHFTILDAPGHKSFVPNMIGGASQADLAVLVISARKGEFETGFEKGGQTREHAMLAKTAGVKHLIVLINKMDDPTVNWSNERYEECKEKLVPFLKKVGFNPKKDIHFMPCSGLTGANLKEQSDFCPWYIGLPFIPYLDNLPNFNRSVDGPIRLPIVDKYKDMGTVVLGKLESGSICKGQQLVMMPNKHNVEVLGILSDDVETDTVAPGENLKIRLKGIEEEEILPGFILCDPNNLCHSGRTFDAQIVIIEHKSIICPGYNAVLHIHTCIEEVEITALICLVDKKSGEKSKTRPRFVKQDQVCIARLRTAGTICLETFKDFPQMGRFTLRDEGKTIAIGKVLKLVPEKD
Procedure: Cells were washed twice with ice-cold PBS and lysed in RIPA lysis buffer (Sigma) freshly supplemented with Halt™ Protease Inhibitor Cocktail (ThermoFisher) for 15 minutes on ice. The cell pellet was removed by centrifugation at 13,000 g at 4° C. for 15 minutes. Protein concentration was measured by BCA assay (Thermo Fisher Scientific). Proteins were denatured in NuPAGE LDS 4× sample buffer supplemented with reducing agents (Invitrogen). Typically, 10-20 µg of total protein was loaded per lane on a 4%-12% NuPAGE Bis-Tris gradient gel (Invitrogen) and analyzed by standard immunoblotting and imaged using Li-COR Odyssey CLx (LI-COR Biotechnology, Lincoln, NE). Primary antibodies used were: JAKI (Cell Signaling #3332S), JAK2 (#3230S), JAK3 (#8827S), TYK2 (#9312S), GSPT1 (#14980S), CRBN (#71810S), IKZF1 (Santa Cruz Biotechnology, SC-398265) and ACBT (Santa Cruz Biotechnology, SC-47778).

JAK2 = target: T2, JAK2 (Homo sapiens, UniProt O60674, I682F); experiment: Immunoblot protein degradation in MHH-CALL-4 cells; assay type: cell-based
T2 construct: degradation of JAK2 and GSPT1 in MHH-CALL-4 cells; endogenous in cells; host or cells: MHH-CALL-4
T2 sequence (O60674 whole entry I682F): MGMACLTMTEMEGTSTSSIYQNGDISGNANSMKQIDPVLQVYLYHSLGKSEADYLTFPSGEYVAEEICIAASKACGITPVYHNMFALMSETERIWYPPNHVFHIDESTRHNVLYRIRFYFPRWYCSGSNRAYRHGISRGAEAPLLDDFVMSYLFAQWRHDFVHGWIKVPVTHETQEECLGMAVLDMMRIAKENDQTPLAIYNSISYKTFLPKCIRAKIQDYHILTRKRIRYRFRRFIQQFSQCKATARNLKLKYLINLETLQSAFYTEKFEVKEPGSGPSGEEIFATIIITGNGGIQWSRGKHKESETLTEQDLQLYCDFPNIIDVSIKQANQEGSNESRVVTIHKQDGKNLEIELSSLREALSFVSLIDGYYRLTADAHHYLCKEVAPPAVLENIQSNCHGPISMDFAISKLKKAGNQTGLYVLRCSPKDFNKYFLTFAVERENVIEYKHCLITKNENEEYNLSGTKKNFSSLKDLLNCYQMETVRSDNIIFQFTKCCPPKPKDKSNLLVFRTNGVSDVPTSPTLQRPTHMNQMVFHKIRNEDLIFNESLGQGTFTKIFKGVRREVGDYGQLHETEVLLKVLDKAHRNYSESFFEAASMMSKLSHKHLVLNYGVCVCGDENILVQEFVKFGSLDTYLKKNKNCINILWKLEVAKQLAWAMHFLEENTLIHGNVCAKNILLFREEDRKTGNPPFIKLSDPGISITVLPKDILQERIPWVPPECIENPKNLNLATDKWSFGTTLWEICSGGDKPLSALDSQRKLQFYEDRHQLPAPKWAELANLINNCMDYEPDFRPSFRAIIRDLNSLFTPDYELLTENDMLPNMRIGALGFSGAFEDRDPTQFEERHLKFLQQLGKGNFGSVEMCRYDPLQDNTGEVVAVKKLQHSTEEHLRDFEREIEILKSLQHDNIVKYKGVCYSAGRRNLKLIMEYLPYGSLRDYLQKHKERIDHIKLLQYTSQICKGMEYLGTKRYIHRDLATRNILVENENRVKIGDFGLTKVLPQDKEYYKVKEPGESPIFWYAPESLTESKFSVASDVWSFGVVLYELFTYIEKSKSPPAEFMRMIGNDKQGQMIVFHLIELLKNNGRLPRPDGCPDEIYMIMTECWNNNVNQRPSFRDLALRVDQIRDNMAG

[2] = system: JAK-STAT5 signaling pathway; experiment: Phosphoflow analysis in MHH-CALL-4 cells with or without TSLP; assay type: cell-based, human; conditions: 1 μM, one hour before TSLP 25 ng/mL for 30 minutes
Caco-2 cells = experiment: Caco-2 cell permeability; assay type: in vitro ADME
Procedure: Compound Caco-2 cell permeability was determined using the Transwell® 0.4 μm polycarbonate membrane 96-well as described before (Uchida, et al. (2009) J Pharmacol Toxicol Methods 59(1): 39-43). Briefly, Caco-2 cells monolayers were incubated over 2 hours at 37° C. Fractions were collected from receivers (basal side, B), and concentrations were assessed by UPLC/MS (Waters; Milford, MA). All compounds were tested in triplicates. The A→B (or B→A) apparent permeability coefficients (Papp) of each compound were calculated using the equation, Papp=dQ/dt×1/AC0, where dQ/dt equals the flux of a drug across the monolayer, A equals the total insert well surface area, and CO is the initial concentration of substrate in the donor compartment.

CC(=O)Nc1cc(Oc2ccc3c(nc(Nc4ccc(F)cc4F)n3C)c2C)ccn1 [CHZ868, reference compound]
cytotoxicity in PDX cells ex vivo [1]: not

CC(=O)NCCCNc1ccc2c(c1)C(=O)N(C1CCC(=O)NC1=O)C2=O (stereo not shown) [Cmpd. no. 53]
killing of MHH-CALL-4 cells / cytotoxicity, in words (MHH-CALL-4): intermediately effective
extent of degradation of GSPT1 (GSPT1): preferential

CNCCCN1CCN(c2ccc3c(c2)C(=O)N(C2CCC(=O)NC2=O)C3=O)CC1 (stereo not shown) [Cmpd. no. 56]
extent of degradation of JAK2 (JAK2): preferential
killing of MHH-CALL-4 cells / cytotoxicity, in words (MHH-CALL-4): intermediately effective

CC(=O)NCCCNC(=O)COc1cccc2c1C(=O)N(C1CCC(=O)NC1=O)C2=O (stereo not shown) [Cmpd. no. 59]
extent of degradation of JAK2 (JAK2): minimal activity on either target
killing of MHH-CALL-4 cells / cytotoxicity, in words (MHH-CALL-4): relatively low activity
extent of degradation of GSPT1 (GSPT1): minimal activity on either target

CNCCCCNc1ccc2c(c1)C(=O)N(C1CCC(=O)NC1=O)C2=O (stereo not shown) [Cmpd. no. 80]
extent of degradation of JAK2 (JAK2): minimal activity on either target
killing of MHH-CALL-4 cells / cytotoxicity, in words (MHH-CALL-4): relatively low activity
extent of degradation of GSPT1 (GSPT1): minimal activity on either target

N#CC[C@H](C1CCCC1)n1cc(-c2nc(Nc3ccc(C(=O)NCCCCNc4cccc5c4C(=O)N(C4CCC(=O)NC4=O)C5=O)cc3)nc3[nH]ccc23)cn1 (stereo partly shown) [Compound 5]
cytotoxicity in PDX cells ex vivo [1]: show cytotoxicity
EC50 (MHH-CALL-4; Homo sapiens, MHHCALL4, Table 6, no star, read-out: HHCALL4 (nM), MHHCALL4 EC50): 784 nM
extent of degradation of GSPT1 (GSPT1): degradation of GSPT1 was observed
JAK inhibition (phosphoflow) [2]: comparable JAK inhibition

CCS(=O)(=O)N1CC(CC#N)(n2cc(-c3nc(Nc4ccc(C(=O)NCCCCNc5cccc6c5C(=O)N(C5CCC(=O)NC5=O)C6=O)cc4)nc4[nH]ccc34)cn2)C1 (stereo not shown) [Compound 6]
cytotoxicity in PDX cells ex vivo [1]: show cytotoxicity
EC50 (MHH-CALL-4; Table 6, no star, read-out: HHCALL4 (nM), MHHCALL4 EC50): 1.52 nM
JAK inhibition (phosphoflow) [2]: comparable JAK inhibition

CCS(=O)(=O)N1CC(CC#N)(n2cc(-c3nc(Nc4ccc(C(=O)NCCN5CCN(c6ccc7c(c6)C(=O)N(C6CCC(=O)NC6=O)C7=O)CC5)cc4)nc4[nH]ccc34)cn2)C1 (stereo not shown) [Compound 8]
killing of MHH-CALL-4 cells / cytotoxicity, in words (MHH-CALL-4): intermediately effective
killing of MHH-CALL-4 cells / cytotoxicity, in words (MHH-CALL-4; listed as compound 8): reduced activity

N#CC[C@H](C1CCCC1)n1cc(-c2ncnc3[nH]ccc23)cn1 [Ruxolitinib, reference compound]
EC50 (MHH-CALL-4; Homo sapiens, MHHCALL4, read-out: HHCALL4 (nM), MHHCALL4 EC50): 5800 nM

CCCn1cc(-c2nc(Nc3ccc(C(=O)NCCCCNc4cccc5c4C(=O)N(C4CCC(=O)NC4=O)C5=O)cc3)nc3[nH]ccc23)cn1 (stereo not shown) [SJ000988497]
Papp, Caco-2 assay (Caco-2 cells): 1.912 ×10⁻⁶ cm/s

From US20260258049A1, “Molecules and Methods Related to Treatment of Uncontrolled Cellular Proliferation” (ST. JUDE CHILDREN'S RESEARCH HOSPITAL, priority 2019, published 2026)
